Experimental findings from article PMC11350758, “Development of Xanthoangelol-Derived Compounds with Membrane-Disrupting Effects against Gram-Positive Bacteria” (Antibiotics, 2024) are described below.

What all share (format): cell-based
In assay [1] the test system is S. aureus ATCC43300. Put plainly: DNA leakage study. The note with it: 16 μg/mL. The method, then: The destruction of bacterial cell membranes usually causes the leakage of macromolecules, including DNA and proteins. To investigate the effect of the compound 9h on the leakage of cytoplasmic contents, we performed DNA and protein leakage assays against S. aureus ATCC43300. The degree of damage to the bacterial cell membrane could be reflected by the concentrations of DNA and protein. The non-membrane-targeted antibiotic ciprofloxacin, membrane-targeted peptide melittin, and PBS were used as controls. […] A similar result were also observed in the leakage of protein with S. aureus (Figure 8C).
Mid-log S. aureus ATCC43300 was collected and resuspended in PBS (1.0 × 10^8 CFU/mL). […] The concentration of the protein was determined according to the method of the BCA assay kit (Thermo Fisher Scientific, Waltham, MA, USA), and the concentration of DNA in the supernatant was tested by a micro-spectrophotometer. All biological experiments were repeated three times.

Assay [2] relates to Acinetobacter baumannii ATCC19606. Put plainly: MIC, broth microdilution. The note with it: Acinetobacter baumannii ATCC19606; read-out: MIC A. b. 19606. The essentials:
(§1)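 Twofold serial dilutions of compound in TSB broth were mixed with an equal volume of bacterial suspension (10^6 CFU/mL) and incubated at 37 °C for 24 h, following CLSI micro broth dilution. Experiments were repeated three times.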

Assay [3] relates to Pseudomonas aeruginosa ATCC27853, penicillin-susceptible strain. Put plainly: MIC, broth microdilution. The note with it: Pseudomonas aeruginosa ATCC27853; read-out: MIC P. a. 27853. The essentials:
as §1
For orientation: In broth dilution the organism is exposed to a series of concentrations in liquid medium.

The subject of assay [4] is Klebsiella pneumonia ATCC10031. Kind of assay: MIC, broth microdilution. The note with it: Klebsiella pneumoniae; Klebsiella pneumonia ATCC10031; read-out: MIC K. p. 10031. The essentials:
as §1

In assay [5] the test system is Staphylococcus epidermidis ATCC12228, erythromycin-susceptible strain. Put plainly: MIC, broth microdilution. Conditions: Staphylococcus epidermidis ATCC12228; read-out: MIC S. e. 12228. The essentials: as §1
Assay [6] has as its system Staphylococcus aureus ATCC31007, penicillin-resistant strain. Put plainly: MIC, broth microdilution. The note with it: Staphylococcus aureus ATCC31007; read-out: MIC S. a. 31007. The essentials: as §1
Assay [7] deals with Escherichia coli ATCC25922, penicillin-susceptible strain. Kind of assay: MIC, broth microdilution. Conditions: Escherichia coli ATCC25922; read-out: MIC E. c. 25922. The essentials: as §1
In assay [8] the test system is S. aureus ATCC43300. Kind of assay: Resistance development assay (serial passage). The note with it: serial passage at 1/2 MIC for 20 days. The method, then: The rapid increase in bacterial resistance to antibiotics is a major challenge in clinical treatment, and in order to assess the drug resistance development for compound 9h, we performed a drug resistance assay against S. aureus ATCC43300. Norfloxacin was selected as the positive control. The S. aureus cells were incubated with sub-MIC (1/2 MIC) concentration of compound 9h and were serially passaged for a duration of 20 days.
Resistance was defined as a more than 4-fold increase in the tested compound in MIC when compared to the beginning value. Briefly, S. aureus ATCC43300 was cultured (37 °C, 200 rpm) in MHB broth for 5 h and diluted to 1 × 10^6 CFU/mL. Then, the bacteria were cultured with compound 9h at a sub-MIC concentration (1/2 MIC) for 18 h. The MICs were determined according to this method for consecutive 20 days. All biological experiments were repeated three times.

Another assay relates to S. aureus ATCC4330. Put plainly: microbe, parasite or virus in culture. The note with it: Staphylococcus aureus, read-out: MBC. The procedure:
Due to the presence of various biological enzymes in plasma, natural AMPs are susceptible to enzymatic degradation upon entering the bloods, leading to a loss of their antimicrobial activity. To evaluate the plasma stability of active compound 9h, we conducted a stability assay by determining their MBC (minimum bactericidal concentration) values in plasma and different blood components. […] The observed initial increase in the MBC value, followed by remaining unchanged, could potentially be attributed to the initial binding of compound 9h with plasma proteins, causing a reduction in its activity. Once this binding became saturated, the bactericidal activity of the compound remained stable, further indicating the good stability of compound 9h in plasma.
MBCs of the compounds were tested. Furthermore, MBCs of compounds in 50% plasma, 50% serum, and 50% blood suspension were tested. The MBC value is defined as the concentration at which the colony count is less than 5 after 18 h of incubation at 37 °C. All biological experiments were repeated three times.

Assay [9] deals with S. aureus ATCC43300. Put plainly: Cytoplasmic membrane depolarization assay, DiSC3(5). The note with it: 16 μg/mL, at 20 min. The method, then: To explore the antibacterial mechanism of compound 9h, a cytoplasmic membrane depolarization assay was performed against S. aureus ATCC43300 using 3,3′-dipropylthiadicarbocyanine iodide (DiSC3(5)) assay. In general, DiSC3(5) could penetrate the intact cell membranes and was quenched when accumulated inside the bacterial cells. Once the cell membrane was destroyed, DiSC3(5) was released from the cell membrane, leading to a significant increase in fluorescence intensity. […] Moreover, the fluorescence intensity in S. aureus increased in a dose-dependent manner with increasing concentrations of 9h.
Mid-log S. aureus ATCC43300 was collected and then washed with PBS three times. Bacterial suspension (1.0 × 10^8 CFU/mL, 150 μL) was added to a black 96-well plate, and then fluorescent dye DiSC3(5) (10 μM, 50 μL) was pipetted into each well of plates and preincubated in the dark for 30 min. After the incubation, the fluorescence intensity was measured every minute for 6 min using a microplate reader (SpectraMax i3x, Molecular Devices, Sunnyvale, CA, USA) (λex/λem = 622 nm/670 nm). […] All biological experiments were repeated three times.

SMILES strings stand for the structures. Values after ≈ are worked out from the molar mass of the structure shown. Like-named read-outs stand apart in the source and are kept apart here.

`CC(=O)c1c(OCCCNCCCN2CCN(C)CC2)c2c(c3c1OC(C)(CCC=C(C)C)C=C3)OC(C)(CCC=C(C)C)C=C2` (centres unmarked) [Compound 9h, 1-(2,8-Dimethyl-2,8-bis(4-methylpent-3-en-1-yl)-5-(3-((3-(4-methylpiperazin-1-yl)propyl)amino)propoxy)-2H,8H-pyrano [2,3-f]chromen-6-yl)ethan-1-one]: the “concentration of DNA excreted vs blank control” value in the assay with S. aureus ATCC43300 [1] is recorded as “approximately 5.5 fold”. For the same compound, the MIC – broadly, the lowest concentration that inhibits growth of the organism – in assay [2] was found to be 4 µg/mL (≈ 6.31 µM); in assay [3] it was 16 µg/mL (≈ 25.2 µM); in [4], 8 µg/mL (≈ 12.6 µM); in assay [5], 0.5 µg/mL (≈ 0.789 µM); in [6] it was 2 µg/mL (≈ 3.15 µM); in [7] it was 4 µg/mL (≈ 6.31 µM). Further, in the assay on S. aureus ATCC43300 [8], the “fold increase in MIC” value is reported as no more than 4 fold. Further, the MBC with S. aureus ATCC4330 (ATCC4330, dissolved in Mueller Hinton broth (MHB)) stood at 16 µg/mL (≈ 25.2 µM); in the assay with S. aureus ATCC4330 (ATCC4330, in 50% blood (Figure 3B)) it was 32 µg/mL (≈ 50.5 µM); with S. aureus ATCC4330 (ATCC4330, in 50% plasma (Figure 3B)) it was 32 µg/mL (≈ 50.5 µM); in the assay on S. aureus ATCC4330 (ATCC4330, in 50% serum (Figure 3B)) it was 32 µg/mL (≈ 50.5 µM); in the assay on S. aureus ATCC4330 (ATCC4330, treatment with 50% plasma, unchanged after 3 and 6 h preincubation (Figure 3A)), 32 µg/mL (≈ 50.5 µM). Further, in the assay on S. aureus ATCC43300 [9], the “increase of DiSC3(5) fluorescence intensity vs blank control” value is listed as “about 5 fold”.
